Experimental data reported in ChEMBL document CHEMBL1201862, “PubChem BioAssay data set” (2004).
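How tested: cells in 96-well plates exposed to compound for 48 hours at five concentrations. GI50: concentration for 50% inhibition of growth.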 Active and inactive are the calls of the source. No stated cut-off is given here; in the data, active = GI50 up to about 1.1 µM and inactive = higher.

Legend:
Assay in all cases: NCI-60 cell line screen, 48 h
SK-MEL-5 = system: SK-MEL-5
HCT-116 = system: HCT-116
UACC-62 = system: UACC-62
KM12 = system: KM12
SW-620 = system: SW-620
HCC 2998 = system: HCC 2998
UO-31 = system: UO-31
ACHN = system: ACHN
RXF 393 = system: RXF 393
COLO 205 = system: COLO 205
SNB-75 = system: SNB-75
SNB-19 = system: SNB-19
HOP-62 = system: HOP-62
SK-MEL-2 = system: SK-MEL-2
SK-MEL-28 = system: SK-MEL-28
SF-295 = system: SF-295
NCI-H226 = system: NCI-H226
OVCAR-3 = system: OVCAR-3
HL-60 = system: HL-60
NCI-H460 = system: NCI-H460
OVCAR-8 = system: OVCAR-8
M19-MEL = system: M19-MEL
SF-268 = system: SF-268
LXFL 529 = system: LXFL 529
RPMI-8226 = system: RPMI-8226
CCRF-CEM = system: CCRF-CEM
IGROV-1 = system: IGROV-1
CAKI-1 = system: CAKI-1
UACC-257 = system: UACC-257
NCI-H23 = system: NCI-H23
A549 = system: A549
TK-10 = system: TK-10
K562 = system: K562
EKVX = system: EKVX
M14 = system: M14
MOLT-4 = system: MOLT-4
SF-539 = system: SF-539
DMS-114 = system: DMS-114
HT-29 = system: HT-29
KM-20L2 = system: KM-20L2
HOP-92 = system: HOP-92
Malme-3M = system: Malme-3M
SN12C = system: SN12C
XF498 = system: XF498
LOX IMVI = system: LOX IMVI
786-0 = system: 786-0
OVCAR-4 = system: OVCAR-4
DLD-1 = system: DLD-1
NCI-H522 = system: NCI-H522
OVCAR-5 = system: OVCAR-5
U-251 = system: U-251
HCT-15 = system: HCT-15
SR = system: SR
SNB-78 = system: SNB-78
SK-OV-3 = system: SK-OV-3

## C/N=c1/ssc(=S)n1C(C)C
SK-MEL-5
  GI50: 19.8 µM (inactive)
HCT-116
  GI50: 19.7 µM (inactive)
UACC-62
  GI50: 12 µM (inactive)
KM12
  GI50: 25.2 µM (inactive)
SW-620
  GI50: 4.24 µM (inactive)
HCC 2998
  GI50: 13.9 µM (inactive)
UO-31
  GI50: 37.7 µM (inactive)
ACHN
  GI50: 20.8 µM (inactive)
RXF 393
  GI50: 7.5 µM (inactive)
COLO 205
  GI50: 16.1 µM (inactive)
SNB-75
  GI50: 1.11 µM (active)
SNB-19
  GI50: > 100 µM (inactive)
HOP-62
  GI50: 18.9 µM (inactive)
SK-MEL-2
  GI50: 42 µM (inactive)
SK-MEL-28
  GI50: 1.4 µM (inactive)
SF-295
  GI50: 33.9 µM (inactive)
NCI-H226
  GI50: 56.2 µM (inactive)
OVCAR-3
  GI50: 12.4 µM (inactive)
HL-60
  GI50: 2.3 µM (inactive)
NCI-H460
  GI50: 24.2 µM (inactive)
OVCAR-8
  GI50: 25.6 µM (inactive)
M19-MEL
  GI50: 13.7 µM (inactive)
SF-268
  GI50: 33.8 µM (inactive)
LXFL 529
  GI50: 4.18 µM (inactive)
RPMI-8226
  GI50: 11.6 µM (inactive)
CCRF-CEM
  GI50: 0.673 µM (active)
IGROV-1
  GI50: 17.5 µM (inactive)
CAKI-1
  GI50: 21.7 µM (inactive)
UACC-257
  GI50: 14.5 µM (inactive)
NCI-H23
  GI50: 12.2 µM (inactive)
A549
  GI50: 25.6 µM (inactive)
TK-10
  GI50: 44.6 µM (inactive)
K562
  GI50: 3.06 µM (inactive)
EKVX
  GI50: 57.8 µM (inactive)
M14
  GI50: 12.8 µM (inactive)
MOLT-4
  GI50: 10.8 µM (inactive)
SF-539
  GI50: 25.8 µM (inactive)
DMS-114
  GI50: 3.13 µM (inactive)
HT-29
  GI50: 3.3 µM (inactive)
KM-20L2
  GI50: 16.7 µM (inactive)
HOP-92
  GI50: 14.3 µM (inactive)

## O=C(O)/C=C\C(=O)Nc1ccc(S(=O)(=O)c2ccc(NC(=O)/C=C\C(=O)O)cc2)cc1
SK-MEL-5
  GI50: > 100 µM (inactive)
Malme-3M
  GI50: > 100 µM (inactive)
HCT-116
  GI50: > 100 µM (inactive)
UACC-62
  GI50: > 100 µM (inactive)
KM12
  GI50: > 100 µM (inactive)
SN12C
  GI50: > 100 µM (inactive)
SW-620
  GI50: > 100 µM (inactive)
XF498
  GI50: > 100 µM (inactive)
UO-31
  GI50: > 100 µM (inactive)
ACHN
  GI50: > 100 µM (inactive)
LOX IMVI
  GI50: > 100 µM (inactive)
COLO 205
  GI50: > 100 µM (inactive)
SNB-75
  GI50: > 100 µM (inactive)
SNB-19
  GI50: > 100 µM (inactive)
HOP-62
  GI50: > 100 µM (inactive)
SK-MEL-2
  GI50: > 100 µM (inactive)
SK-MEL-28
  GI50: > 100 µM (inactive)
SF-295
  GI50: > 100 µM (inactive)
NCI-H226
  GI50: > 100 µM (inactive)
OVCAR-3
  GI50: > 100 µM (inactive)
HL-60
  GI50: > 100 µM (inactive)
786-0
  GI50: > 100 µM (inactive)
OVCAR-8
  GI50: > 100 µM (inactive)
OVCAR-4
  GI50: > 100 µM (inactive)
DLD-1
  GI50: > 100 µM (inactive)
NCI-H522
  GI50: > 100 µM (inactive)
OVCAR-5
  GI50: > 100 µM (inactive)
U-251
  GI50: > 100 µM (inactive)
M19-MEL
  GI50: 45 µM (inactive)
SF-268
  GI50: > 100 µM (inactive)
LXFL 529
  GI50: > 100 µM (inactive)
RPMI-8226
  GI50: > 100 µM (inactive)
CCRF-CEM
  GI50: > 100 µM (inactive)
IGROV-1
  GI50: > 100 µM (inactive)
CAKI-1
  GI50: > 100 µM (inactive)
HCT-15
  GI50: > 100 µM
UACC-257
  GI50: > 100 µM (inactive)
NCI-H23
  GI50: > 100 µM (inactive)
A549
  GI50: > 100 µM (inactive)
TK-10
  GI50: > 100 µM (inactive)
K562
  GI50: > 100 µM (inactive)
SR
  GI50: > 100 µM (inactive)
SNB-78
  GI50: > 100 µM (inactive)
EKVX
  GI50: > 100 µM (inactive)
M14
  GI50: > 100 µM (inactive)
SK-OV-3
  GI50: > 100 µM (inactive)
MOLT-4
  GI50: > 100 µM (inactive)
SF-539
  GI50: > 100 µM (inactive)
DMS-114
  GI50: > 100 µM (inactive)
HT-29
  GI50: > 100 µM (inactive)
KM-20L2
  GI50: > 100 µM (inactive)
HOP-92
  GI50: > 100 µM (inactive)
